In US6737383B1, “Herbicidal oxadiazolidines” (priority 1999, dated 2004):

Assays:
duck salad = assay: Test B flood test duck salad; format: in vivo, Heteranthera limosa
How it was run: (§1)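 Plants were grown to the 2-leaf stage before treatment with test chemical, then held in a greenhouse for twelve to sixteen days. Injury was visually rated against untreated controls on a 0–10 scale, where 0 is no effect and 10 is complete control.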

smallflower flatsedge = assay: Test B flood test smallflower flatsedge; format: in vivo, Cyperus difformis
How it was run: as §1

sugar beet = assay: Test B pre/postemergence sugar beet; format: in vivo, Beta vulgaris
How it was run: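 Test chemicals in a non-phytotoxic solvent mixture with surfactant were sprayed preemergence onto planted seeds and postemergence onto plants 2 to 18 cm tall (1- to 4-leaf stage). After twelve to sixteen days in a greenhouse, injury was visually rated against untreated controls from 0 (no effect) to 10 (complete control).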

rice = assay: Test B flood test rice; format: in vivo, Oryza sativa
How it was run: as §1

bamyardgrass = assay: Test B flood test barnyardgrass; format: in vivo, Echinochloa crus-galli
How it was run: as §1

[1] = Postemergence, Rate 62 g/ha, scale 0 to 10, 0 is no effect, 10 is complete control
[2] = Rate 125 g/ha, Postemergence section (flood test species), scale 0 to 10, 0 no effect, 10 complete control
[3] = Rate 500 g/ha, listed under Postemergence (flood test species), scale 0 to 10, 0 no effect, 10 complete control
[4] = flood test, listed under Postemergence, Rate 250 g/ha, scale 0 to 10, 0 no effect, 10 complete control
[5] = Postemergence, Rate 250 g/ha, scale 0 to 10, 0 no effect, 10 complete control
[6] = Preemergence, Rate 125 g/ha, scale 0 to 10 (0 no effect, 10 complete control)
[7] = Preemergence, Rate 250 g/ha, scale of 0 to 10 where 0 is no effect and 10 is complete control
[8] = Preemergence, Rate 500 g/ha, scale 0 (no effect) to 10 (complete control)
[9] = Rate 125 g/ha, Postemergence, scale 0 to 10, 0 no effect, 10 complete control
[10] = Rate 500 g/ha, Postemergence, scale 0 to 10, 0 no effect, 10 complete control
[11] = Preemergence, Rate 62 g/ha, scale 0 to 10 (0 no effect, 10 complete control)
[12] = Rate 31 g/ha, Postemergence section (flood test species), scale 0 to 10
[13] = Rate 250 g/ha, headed Pre-emergence (flood test species), scale 0 to 10 (0 no effect, 10 complete control)
[14] = Rate 500 g/ha, headed Pre-emergence (flood test species), scale 0 to 10 (0 no effect, 10 complete control)
[15] = Rate 1000 g/ha, Pre-emergence (as headed), scale 0 to 10
[16] = Rate 2000 g/ha, Pre-emergence (as headed), scale 0 to 10
[17] = Postemergence (flood test species), Rate 125 g/ha, scale of 0 to 10 where 0 is no effect and 10 is complete control
[18] = Rate 250 g/ha, Postemergence (flood test), scale 0 to 10, 0 is no effect, 10 is complete control

Compound: Cc1cccc(Cl)c1-n1c(=O)on(C(=O)N(c2ccc(Cl)cc2)C(C)C)c1=O [Compound 54]
- Ducksalad plant response rating (duck salad; [1]): 0
- Ducksalad plant response rating (duck salad; [2]): 0
- Ducksalad plant response rating (duck salad; [3]): 0
- Ducksalad plant response rating (duck salad; [4]): 0
- S. Flatsedge plant response rating (smallflower flatsedge; [1]): 0
- S. Flatsedge plant response rating (smallflower flatsedge; [2]): 0
- S. Flatsedge plant response rating (smallflower flatsedge; [3]): 0
- S. Flatsedge plant response rating (smallflower flatsedge; [4]): 0
- Sugarbeets plant response rating (sugar beet; [1]): 0
- Sugarbeets plant response rating (sugar beet; [5]): 0
- Plant response rating, Sugarbeets (sugar beet; Preemergence, Rate 62 g/ha, scale 0 to 10, 0 is no effect, 10 is complete control): 0
- Plant response rating, Sugarbeets (sugar beet; [6]): 0
- Plant response rating, Sugarbeets (sugar beet; [7]): 0
- Sugarbeets plant response rating (sugar beet; [8]): 0
- Sugarbeets plant response rating (sugar beet; [9]): 0
- Sugarbeets plant response rating (sugar beet; [10]): 0
- Rice plant response rating (rice; [1]): 0
- Rice plant response rating (rice; [2]): 0
- Rice plant response rating (rice; [3]): 0
- Rice plant response rating (rice; [4]): 0
- Barnyardgrass plant response rating (bamyardgrass; [1]): 0
- Barnyardgrass plant response rating (bamyardgrass; [2]): 0
- Barnyardgrass plant response rating (bamyardgrass; [3]): 0
- Barnyardgrass plant response rating (bamyardgrass; [4]): 0

Compound: Cc1cc(C)c(-n2c(=O)on(C(=O)N(c3ccc(F)cc3)C(C)C)c2=O)c(C)c1 [Compound 60]
- Ducksalad plant response rating (duck salad; [1]): 0
- Ducksalad plant response rating (duck salad; [2]): 0
- Ducksalad plant response rating (duck salad; [3]): 0
- Ducksalad plant response rating (duck salad; [4]): 0
- S. Flatsedge plant response rating (smallflower flatsedge; [1]): 0
- S. Flatsedge plant response rating (smallflower flatsedge; [2]): 0
- S. Flatsedge plant response rating (smallflower flatsedge; [3]): 0
- S. Flatsedge plant response rating (smallflower flatsedge; [4]): 0
- Sugarbeets plant response rating (sugar beet; [1]): 0
- Sugarbeets plant response rating (sugar beet; [5]): 0
- Sugarbeets plant response rating (sugar beet; [11]): 0
- Plant response rating, Sugarbeets (sugar beet; [6]): 0
- Plant response rating, Sugarbeets (sugar beet; [7]): 3
- Sugarbeets plant response rating (sugar beet; [8]): 5
- Sugarbeets plant response rating (sugar beet; [9]): 0
- Sugarbeets plant response rating (sugar beet; [10]): 0
- Rice plant response rating (rice; [1]): 0
- Rice plant response rating (rice; [2]): 0
- Rice plant response rating (rice; [3]): 0
- Rice plant response rating (rice; [4]): 0
- Barnyardgrass plant response rating (bamyardgrass; [1]): 0
- Barnyardgrass plant response rating (bamyardgrass; [2]): 0
- Barnyardgrass plant response rating (bamyardgrass; [3]): 0
- Barnyardgrass plant response rating (bamyardgrass; [4]): 0

Compound: COc1cccc(C)c1-n1c(=O)on(C(=O)N(c2ccc(F)cc2F)C(C)C)c1=O [Compound 74]
- Ducksalad plant response rating (duck salad; [1]): 0
- Ducksalad plant response rating (duck salad; [2]): 0
- Ducksalad plant response rating (duck salad; [3]): 0
- Ducksalad plant response rating (duck salad; [4]): 0
- S. Flatsedge plant response rating (smallflower flatsedge; [1]): 0
- S. Flatsedge plant response rating (smallflower flatsedge; [2]): 0
- S. Flatsedge plant response rating (smallflower flatsedge; [3]): 0
- S. Flatsedge plant response rating (smallflower flatsedge; [4]): 0
- Sugarbeets plant response rating (sugar beet; [1]): 0
- Sugarbeets plant response rating (sugar beet; [5]): 0
- Sugarbeets plant response rating (sugar beet; [11]): 0
- Plant response rating, Sugarbeets (sugar beet; [6]): 0
- Plant response rating, Sugarbeets (sugar beet; [7]): 2
- Sugarbeets plant response rating (sugar beet; [8]): 4
- Sugarbeets plant response rating (sugar beet; [9]): 0
- Sugarbeets plant response rating (sugar beet; [10]): 0
- Rice plant response rating (rice; [1]): 0
- Rice plant response rating (rice; [2]): 0
- Rice plant response rating (rice; [3]): 0
- Rice plant response rating (rice; [4]): 0
- Barnyardgrass plant response rating (bamyardgrass; [1]): 0
- Barnyardgrass plant response rating (bamyardgrass; [2]): 0
- Barnyardgrass plant response rating (bamyardgrass; [3]): 0
- Barnyardgrass plant response rating (bamyardgrass; [4]): 0

Compound: CCN(CC)C(=O)n1oc(=O)n(Cc2cccs2)c1=O [Compound 77]
- Ducksalad plant response rating (duck salad; [1]): 0
- Ducksalad plant response rating (duck salad; [2]): 0
- Ducksalad plant response rating (duck salad; [3]): 0
- Ducksalad plant response rating (duck salad; [4]): 0
- S. Flatsedge plant response rating (smallflower flatsedge; [1]): 0
- S. Flatsedge plant response rating (smallflower flatsedge; [2]): 0
- S. Flatsedge plant response rating (smallflower flatsedge; [3]): 3
- S. Flatsedge plant response rating (smallflower flatsedge; [4]): 0
- Sugarbeets plant response rating (sugar beet; [1]): 0
- Sugarbeets plant response rating (sugar beet; [5]): 0
- Sugarbeets plant response rating (sugar beet; [11]): 0
- Plant response rating, Sugarbeets (sugar beet; [6]): 0
- Plant response rating, Sugarbeets (sugar beet; [7]): 0
- Sugarbeets plant response rating (sugar beet; [8]): 0
- Sugarbeets plant response rating (sugar beet; [9]): 0
- Sugarbeets plant response rating (sugar beet; [10]): 0
- Rice plant response rating (rice; [1]): 0
- Rice plant response rating (rice; [2]): 0
- Rice plant response rating (rice; [3]): 0
- Rice plant response rating (rice; [4]): 0
- Barnyardgrass plant response rating (bamyardgrass; [1]): 0
- Barnyardgrass plant response rating (bamyardgrass; [2]): 0
- Barnyardgrass plant response rating (bamyardgrass; [3]): 0
- Barnyardgrass plant response rating (bamyardgrass; [4]): 0

Compound: Cc1ccccc1Cn1c(=O)on(C(=O)N(c2ccc(F)cc2F)C(C)C)c1=O [Compound 87]
- Ducksalad plant response rating (duck salad; [1]): 0
- Ducksalad plant response rating (duck salad; [12]): 0
- Ducksalad plant response rating (duck salad; [2]): 0
- Ducksalad plant response rating (duck salad; [13]): 0
- Plant response rating, Ducksalad (duck salad; [14]): 0
- Ducksalad plant response rating (duck salad; [15]): 0
- Ducksalad plant response rating (duck salad; [16]): 0
- Ducksalad plant response rating (duck salad; [4]): 0
- S. Flatsedge plant response rating (smallflower flatsedge; [1]): 0
- S. Flatsedge plant response rating (smallflower flatsedge; Pre-emergence, Rate 1000 g/ha, scale 0 to 10 (0 no effect, 10 complete control)): 0
- S. Flatsedge plant response rating (smallflower flatsedge; [2]): 0
- S. Flatsedge plant response rating (smallflower flatsedge; [13]): 0
- Plant response rating, S. Flatsedge (smallflower flatsedge; [14]): 0
- S. Flatsedge plant response rating (smallflower flatsedge; [16]): 0
- S. Flatsedge plant response rating (smallflower flatsedge; [4]): 0
- Sugarbeets plant response rating (sugar beet; [1]): 0
- Sugarbeets plant response rating (sugar beet; [5]): 3
- Sugarbeets plant response rating (sugar beet; [11]): 0
- Plant response rating, Sugarbeets (sugar beet; [6]): 0
- Plant response rating, Sugarbeets (sugar beet; [7]): 3
- Sugarbeets plant response rating (sugar beet; [8]): 9
- Sugarbeets plant response rating (sugar beet; [9]): 3
- Sugarbeets plant response rating (sugar beet; [10]): 8
- Rice plant response rating (rice; [1]): 0
- Rice plant response rating (rice; [12]): 0
- Rice plant response rating (rice; [2]): 0
- Rice plant response rating (rice; [13]): 0
- Plant response rating, Rice (rice; [14]): 0
- Rice plant response rating (rice; [15]): 0
- Rice plant response rating (rice; [16]): 0
- Rice plant response rating (rice; [4]): 0
- Barnyardgrass plant response rating (bamyardgrass; [1]): 0
- Barnyardgrass plant response rating (bamyardgrass; [12]): 0
- Barnyardgrass plant response rating (bamyardgrass; [2]): 0
- Barnyardgrass plant response rating (bamyardgrass; [13]): 0
- Plant response rating, Barnyardgrass (bamyardgrass; [14]): 0
- Barnyardgrass plant response rating (bamyardgrass; [15]): 0
- Barnyardgrass plant response rating (bamyardgrass; Rate 2000 g/ha, Pre-emergence (as headed), scale 0 to 10, 0 no effect, 10 complete control): 0
- Barnyardgrass plant response rating (bamyardgrass; [4]): 0

Compound: Cc1nn(C)c(Cl)c1-n1c(=O)on(C(=O)N(c2ccc(F)cc2F)C(C)C)c1=O [Compound 96]
- Ducksalad plant response rating (duck salad; [17]): 0
- Ducksalad plant response rating (duck salad; [1]): 0
- Ducksalad plant response rating (duck salad; [3]): 0
- Ducksalad plant response rating (duck salad; [4]): 0
- S. Flatsedge plant response rating (smallflower flatsedge; [17]): 0
- S. Flatsedge plant response rating (smallflower flatsedge; [1]): 0
- Plant response rating, S. Flatsedge (smallflower flatsedge; [18]): 0
- S. Flatsedge plant response rating (smallflower flatsedge; [3]): 3
- Sugarbeets plant response rating (sugar beet; [1]): 0
- Sugarbeets plant response rating (sugar beet; Postemergence, Rate 125 g/ha, scale of 0 to 10 where 0 is no effect and 10 is complete control): 0
- Sugarbeets plant response rating (sugar beet; [11]): 0
- Sugarbeets plant response rating (0 to 10 scale) (sugar beet; Preemergence, Rate 125 g/ha, 0 is no effect, 10 is complete control): 0
- Plant response rating, Sugarbeets (sugar beet; [7]): 0
- Sugarbeets plant response rating (sugar beet; [8]): 2
- Plant response rating, Sugarbeets (sugar beet; Rate 250 g/ha, Postemergence, scale 0 to 10, 0 is no effect, 10 is complete control): 0
- Sugarbeets plant response rating (sugar beet; [10]): 0
- Rice plant response rating (rice; [17]): 0
- Rice plant response rating (rice; [1]): 0
- Plant response rating, Rice (rice; [18]): 0
- Rice plant response rating (rice; [3]): 2
- Barnyardgrass plant response rating (bamyardgrass; [1]): 0
- Barnyardgrass plant response rating (bamyardgrass; [2]): 0
- Barnyardgrass plant response rating (bamyardgrass; [3]): 0
- Barnyardgrass plant response rating (bamyardgrass; [4]): 0
